Laboratory results published in PubChem BioAssay (NCI).
Several values for one entry are separate records, joined by “and”; a condition that tells them apart may be missing. Equal values may be shown once.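 Exposure lasted 48 hours, with cells grown in 96-well plates and compounds tested at five concentrations. GI50 is the concentration that inhibits growth by half. TGI is the concentration that stops growth completely.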

Columns and labels:
Assay in all cases: inhibition of tumour cell growth, NCI panel, 48 h
NCI/ADR-RES ovarian = test system: NCI/ADR-RES ovarian
RPMI-8226 leukemia = test system: RPMI-8226 leukemia
MOLT-4 leukemia = test system: MOLT-4 leukemia
SK-MEL-5 melanoma = test system: SK-MEL-5 melanoma
SK-MEL-2 melanoma = test system: SK-MEL-2 melanoma
ACHN renal = test system: ACHN renal
A549 NSCLC = test system: A549 NSCLC
HOP-92 NSCLC = test system: HOP-92 NSCLC
K-562 leukemia = test system: K-562 leukemia
U251 CNS = test system: U251 CNS

Row | Compound | GI50 (NCI/ADR-RES ovarian) [µM] | TGI (NCI/ADR-RES ovarian) | GI50 (RPMI-8226 leukemia) [µM] | TGI (RPMI-8226 leukemia) [µM] | GI50 (MOLT-4 leukemia) [µM] | GI50 (SK-MEL-5 melanoma) [µM] | TGI (SK-MEL-5 melanoma) | GI50 (SK-MEL-2 melanoma) [µM] | TGI (SK-MEL-2 melanoma) [µM] | GI50 (ACHN renal) [µM] | TGI (ACHN renal) [µM] | GI50 (A549 NSCLC) [µM] | TGI (A549 NSCLC) [µM] | GI50 (HOP-92 NSCLC) [µM] | TGI (HOP-92 NSCLC) [µM] | GI50 (K-562 leukemia) [µM] | TGI (K-562 leukemia) [µM] | GI50 (U251 CNS) [µM] | TGI (U251 CNS) [µM] | TGI (MOLT-4 leukemia) [µM]
1 | CCCCC(=O)N/N=C/c1c(O)ccc2ccccc12 | 1.68 | > 30.2 µM | 0.247 | 1.57 | 0.349 | 1.84 | 11.4 µM | 3.67 | > 23.7 | 1.38 | > 88.6 | 4.47 | > 92.1 | 2.01 | > 84.5 | 1.89 | > 100 | 1.6 | > 100 | –
2 | O=S1(=O)CS(=O)(=O)OCCO1 | 25.7 | 89.6 µM and 270 µM | – | 599 | 18.4 | > 56.6 | 87.7 µM | – | 119 | 36.3 | 56.5 | > 82.6 | 186 | > 49.7 | 112 | – | 423 | 18.2 | 96.3 | 100
3 | Cc1cc2nc3cc(C)c(N)cc3[n+](-c3ccccc3)c2cc1N | > 100 | > 100 µM | 4.25 | > 100 | 6.5 | 0.773 | 5.4 µM | 6.74 | 47.1 | > 68.2 | > 100 | 14.6 | > 100 | 3.88 | 27.8 | 3.39 | > 100 | 0.945 | > 100 | > 100
4 | C[C@]12CC[C@H]3[C@@H](C[C@@H]4SC(Nc5ccccc5)=N[C@@]45CC(O)CC[C@]35C)[C@@H]1CCC2O (stereo partly specified) | 3.39 | 91.7 µM | 0.465 | 2.47 | 1.87 | 1.82 | 3.41 µM | 2.51 | 5.64 | 1.71 | 3.25 | 2.41 | 6.02 | 2.84 | 6.77 | 2.45 | 12.6 | 1.36 | 2.79 | 8.07
5 | COC(=O)C(CBr)CBr | – | 8.45 µM | – | 3.97 | – | – | 25.1 µM | – | 30.5 | – | 10.1 | – | 36.3 | – | 3.63 | – | 4.29 | – | 10.3 | 16.4
6 | Cc1cc(C(=O)O)c(C)n1-c1cccc(C(=O)O)c1 | > 100 | > 100 µM | > 100 | > 100 | > 100 | > 100 | > 100 µM | > 100 | > 100 | > 100 | > 100 | > 100 | > 100 | > 100 | > 100 | > 100 | > 100 | > 100 | > 100 | > 100
7 | O=C(O)CCc1c2ccc(=O)c(O)c-2oc2c(O)c(O)ccc12 | – | > 100 µM | – | 75.3 | – | – | > 100 µM | – | > 100 | – | > 100 | – | > 100 | – | > 100 | – | 55.2 | – | > 100 | 65.7
8 | Cc1[nH]nc2c1N=C(c1ccccc1F)c1cc(C(N)=O)ccc1N2 | > 25 | > 25 µM | > 25 | > 25 | 6.63 | 3.11 | 9.03 µM | 2.45 | 7.14 | 3.3 | > 22.9 | 7.56 | > 25 | 7.12 | > 25 | 1.72 | > 25 | 0.71 | 10.2 | 22
9 | Oc1ccc(CCNCc2cc3c(cc2Br)OCO3)cc1 | – | > 100 µM | – | > 100 | – | – | > 100 µM | – | 74.6 | – | > 100 | – | > 100 | – | > 100 | – | > 100 | – | > 100 | > 100
10 | C[n+]1c(-c2ccc(/C=N/NC(=O)c3ccc(C(=O)N/N=C/c4ccc(-c5cn6ccccc6[n+]5C)cc4)cc3)cc2)cn2ccccc21 | 553 | > 1000 µM | 121 | 306 | 135 | 155 | > 94.9 µM and 634 µM | 270 | 498 | 752 | > 1000 | 176 | 314 | 198 | 362 | 132 | 259 | 197 | 347 | 292
11 | C/C(=N\N=C(\[Se])N(C)C)c1ccccn1 | – | 1.67 µM | – | 53.2 | – | – | 1.75 µM | – | 12.9 | – | 13.2 | – | 13.5 | – | 13.1 | – | 23.6 | – | 8.65 | 7.8
12 | O=C1C(=O)c2ccccc2C(O)=C1CCCc1ccc(C2CCCCCC2)cc1 | 0.702 | 11.9 µM | 0.463 | 13.9 | 0.618 | 0.445 | 11.5 µM | 1.12 | 21.4 | 0.703 | > 100 | 0.664 | 17.4 | 3.01 | 24.9 | 0.447 | > 34.8 | 0.687 | 25.3 | > 32.1
13 | NC(N)=Nc1nc2ccc([N+](=O)[O-])cc2[nH]1 | – | > 100 µM | – | > 100 | – | – | > 100 µM | – | > 100 | – | > 100 | – | > 100 | – | > 100 | – | > 100 | – | > 100 | > 100
14 | Cc1ccc(C2=C(c3ccccc3)C(c3ccccc3)Oc3ccc(C)cc32)cc1 (stereo unspecified) | 2.18 | 5.35 µM | 6.97 | 41.3 | 8.86 | 1.92 | 3.63 µM | 1.9 | 3.98 | 16.6 | 31.2 | 3.87 | 10.7 | 11.4 | 28.1 | 8.29 | 42.7 | 14.8 | 28.5 | 31.5
